{"source": "patent EP0771196B1", "about": "“EXCITATORY AMINO ACID RECEPTOR ANTAGONISTS” (ELI LILLY AND COMPANY, priority 1994, dated 1996)", "key": {"[1]": {"tested_on": "metabotropic glutamate receptors", "assay": "Displacement of 1S,3R-ACPD-sensitive [3H]glutamate binding to rat brain cell membranes", "settings": "crude membranes of rat forebrain"}, "[2]": {"tested_on": "metabotropic glutamate receptors", "assay": "Displacement of 1S,3R-ACPD-sensitive [3H]glutamate binding to rat brain cell membranes", "settings": "crude membranes of rat forebrain; for IC50: inhibition of [3H]glutamate binding", "description": "The binding of [^3H]glutamate was conducted with crude membranes of rat forebrain as described by Schoepp and True. Schoepp and True, Neuroscience Lett., 145, 100-104 (1992) and True and Schoepp, Society for Neuroscience Abstracts, 19, 470 (1993). IC50 values for the inhibition of [^3H]glutamate binding, or the percent displacement of [^3H]glutamate binding at a 10 µM concentration, of the formula I compound, is shown in Table II."}, "Rats": {"tested_on": "Rats", "assay": "Conditioned active avoidance model", "assay_type": "in vivo", "excerpt": "This model was developed in the early 50s and 60s (Pfeiffer & Jenney, Ann. N.Y. Acad. Sci., 66:[…], 1957; Maffii, J. Pharm. Pharmacol., 11: 129-139, 1959; Cook & Weidley, Ann; N.Y. Acad. Sci., 66: […], 1957; Janke, Handbook of Experimental Pharmacology, Vol. 55/I, New York: Plenum Press, 1978) and is still the primary model used to screen compounds for antipsychotic efficacy.\nRats were individually placed in a sound attenuated, two compartment test chamber. Active avoidance testing consisted of 20 trials each day. On each trial a light (130 v.) and a sound (85 dbA) were delivered simultaneously and 5 seconds later a 5 mA shock was delivered to the floor of the chamber. After 5 seconds the footshock, the light, and the sound were terminated. The animals learned to move from one side of the chamber to the other side when the light and sound cues were presented to avoid shock (avoidance responding) or the rat moved when the shock was administered (escape). Data were tabulated as mean percent escape or mean percent to avoidance for each test day. Prior to drug testing all animals were trained to successfully avoid shock delivery on 90% of trials.\nThis profile on conditioned avoidance is indicative of antipsychotic efficacy."}, "[3]": {"settings": "0, 1, 3, 10 and 30mg/kg, i.p. 20 minutes prior to testing"}}, "note": "Marks after values point to notes of the source that are not given here.", "data": [{"smiles": "NC(CC(Cc1ccccc1)Cc1ccccc1)(C(=O)O)[C@H]1C[C@@H]1C(=O)O", "note": "(mixture of isomers) [Example 51, 2SR- and 2RS-2-amino-2-(1SR,2SR-2-carboxycyclopropan-1-yl)-4-benzyl-5-phenylpentanoic acid]", "values": [{"measurement": "ACPD-Sensitive [^3H]Glutamate Binding % Displacement @ 1 µM", "setting": "[1]; 1 µM compound", "value": "(15% @ 1 µM)"}]}, {"smiles": "NC(CCc1cccc(F)c1)(C(=O)O)[C@H]1C[C@@H]1C(=O)O", "note": "(mixture of isomers) [Example 81, 2SR- and 2RS-2-amino-2-(1SR,2SR-2-carboxycyclopropan-1-yl)-4-(3-fluorophenyl)butanoic acid]", "values": [{"measurement": "ACPD-Sensitive [^3H]Glutamate Binding % Displacement @ 0.1 µM", "setting": "[1]; 0.1 µM compound", "value": "(57% @ 0.1 µM)"}]}, {"smiles": "Cc1cccc(CCC(N)(C(=O)O)C2CC2C(=O)O)c1", "note": "(stereo not drawn) [Example 69, 2R-2-amino-2-(1R ,2R-2-carboxycyclopropan-1-yl)-4-(3-methylphenyl)butanoic acid]", "values": [{"measurement": "ACPD-Sensitive [^3H]Glutamate Binding % Displacement at 10 µM", "setting": "[2]; 10 µM compound, 10 µM", "value": "(13%)^d"}]}, {"smiles": "Cc1cccc(CCC(N)(C(=O)O)C2CC2C(=O)O)c1", "note": "[Example 70, 2S-2-amino-2-(1R,2R,2-carboxycyclopropan-1-yl)-4-(3-methylphenyl)butanoic acid]", "values": [{"measurement": "IC50", "setting": "[2]", "value": 8100, "unit": "nM"}]}, {"smiles": "N[C@@](CC1c2ccccc2Oc2ccccc21)(C(=O)O)[C@H]1C[C@@H]1C(=O)O", "note": "[Example 71, 2R-2 amino-2-(1S,2S-2-carboxycyclopropan-1-yl)-3-(dibenzopyran-4-yl)propanoic acid]", "values": [{"measurement": "IC50", "setting": "[2]", "value": 530, "unit": "nM"}]}, {"smiles": "N[C@](CC1c2ccccc2Oc2ccccc21)(C(=O)O)[C@H]1C[C@@H]1C(=O)O", "note": "[Example 72]", "values": [{"measurement": "IC50", "setting": "[2]", "value": 14, "unit": "nM"}, {"measurement": "avoidance responding", "setting": "Rats; [3]", "value": "dose related decrease in avoidance responding"}, {"measurement": "escape responding", "setting": "Rats; [3]", "value": "not affecting escape responding"}, {"measurement": "activity in the conditioned active avoidance model", "setting": "Rats; summary statement", "value": "active"}]}, {"smiles": "N[C@](Cc1cccc2c1Oc1ccccc1C2)(C(=O)O)[C@@H]1C[C@H]1C(=O)O", "note": "[Example 73, 2S-2 amino-2-(1R,2R-2-carboxycyclopropan-1-yl)-3-(dibenzopyran-4-yl)propanoic acid]", "values": [{"measurement": "IC50", "setting": "[2]", "value": 860, "unit": "nM"}]}]}
